Experimental findings from ChEMBL document CHEMBL1201862, “PubChem BioAssay data set” (2004) are described below.

Broadly, the GI50 is the concentration that inhibits growth by half.

Assay in all cases: DTP human tumour cell line panel, 48 h
Assay [1] deals with Malme-3M.
In assay [2] the test system is OVCAR-8.
In assay [3] the test system is U-251.
Assay [4] has as its system UO-31.
In assay [5] the test system is TK-10.
Assay [6] relates to NCI-H460.
Assay [7] relates to OVCAR-3.
Assay [8] relates to 786-0.
For assay [9], the system named is CCRF-CEM.
In assay [10] the test system is COLO 205.
Assay [11] relates to NCI-H522.
For assay [12], the system named is NCI-H23.
The test system of assay [13] is DU-145.
Assay [14] relates to MDA-MB-435.
Assay [15] concerns MOLT-4.
For assay [16], the system named is OVCAR-4.
The subject of assay [17] is A549.
For assay [18], the system named is BT-549.
The subject of assay [19] is SK-MEL-2.
The subject of assay [20] is Hs-578T.

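48-hour exposure; five concentrations; linearly interpolated endpoints. At the GI50, growth is halved.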 Activity calls are given as the source filed them. Cut-off read from the data, not from the text of the source: active = GI50 up to about 1.1 µM and inactive = higher.

Consider `COc1cc(OC)cc(OCc2ccc3nc(-c4ccccc4)c(Cl)nc3c2)c1`, for which the GI50 in assay [1] is 11 µM (inactive); in assay [2], 25.8 µM (inactive); in assay [3] it was 20.9 µM (inactive); in assay [4], 66.2 µM (inactive); in assay [5], 20.2 µM (inactive); in assay [6], 37 µM (inactive). The GI50 in assay [7] was > 100 µM (inactive); in [8], 9.89 µM (inactive); in assay [9] it was > 100 µM (inactive); in [10], 25.2 µM (inactive); in assay [11] it was 5.05 µM (inactive); in assay [12] it was 17.3 µM (inactive). Also, the GI50 in [13] was 52.7 µM (inactive); in assay [14], 84.5 µM (inactive); in [15], 25.9 µM (inactive); in assay [16], 24.1 µM (inactive); in assay [17] it was 49.9 µM (inactive); in [18] it was 31.3 µM (inactive). The GI50 is 35.6 µM (inactive) in assay [19] and 27.3 µM (inactive) in assay [20].
As to `Cc1c(/N=N/c2ccccc2)c(-c2ccccc2)n(C2OC(CO)C(O)C(O)C2O)c(=S)c1C#N` (stereo not given), the GI50 is 6.67 µM (inactive) in assay [1]; 3.99 µM (inactive) in assay [2]; 4.08 µM (inactive) in assay [3]; 7.74 µM (inactive) in [4]; 9.29 µM (inactive) in [5]; 10.6 µM (inactive) in assay [6]. In addition, the GI50 is 4.56 µM (inactive) in [7]; 5.14 µM (inactive) in assay [8]; 2.32 µM (inactive) in assay [9]; 5.56 µM (inactive) in assay [10]; 3.5 µM (inactive) in assay [11]; 3.36 µM (inactive) in assay [12]. The GI50 in assay [13] was 6.17 µM (inactive); in assay [14], 4.98 µM (inactive); in assay [15] it was 1.95 µM (inactive); in [16], 6.1 µM (inactive); in assay [17] it was 5.83 µM (inactive); in [18], 5.4 µM (inactive). The GI50 in [19] was 4.48 µM (inactive); in assay [20] it was 2.86 µM (inactive).
For `O=C(Nc1ccccc1)c1cc2c(cc1Cl)Sc1nccn1S2(=O)=O`, the GI50 in assay [1] was 30.1 µM (inactive); in [2] it was 58.2 µM (inactive); in assay [3], 25.5 µM (inactive); in [4], 34 µM (inactive); in assay [5] it was 34.5 µM (inactive); in assay [6], 16.6 µM (inactive). In addition, the GI50 in assay [7] was 21.4 µM (inactive); in assay [8], 21.2 µM (inactive); in assay [9] it was 17.3 µM (inactive); in assay [10], 15.3 µM (inactive); in assay [11] it was 21 µM (inactive); in assay [12], 18.4 µM (inactive). The GI50 in [13] is 18.9 µM (inactive); in assay [14], 14.8 µM (inactive); in [15], 15.6 µM (inactive); in [16], 31.8 µM (inactive); in [17], 36.4 µM (inactive); in [18], 19.7 µM (inactive). The GI50 in [19] is 28.6 µM (inactive); in assay [20] it was 22.8 µM (inactive).
On to `COC(=O)C1C=CN(N(C)C)C2=C1C(=O)c1c(O)cccc1C2=O` (stereo not given), for which the GI50 in [1] was 1.53 µM (inactive); in assay [2], 2.67 µM (inactive); in assay [3], 3.29 µM (inactive); in assay [4], 3.82 µM (inactive); in assay [5], 4.27 µM (inactive); in assay [6], 1.04 µM (active). The GI50 in assay [7] was 0.625 µM (active); in assay [8] it was 2.62 µM (inactive); in [9], 2.22 µM (inactive); in assay [10] it was 1.5 µM (inactive); in [11], 2.48 µM (inactive); in assay [12], 1.63 µM (inactive). Moreover, the GI50 in assay [13] is 1.58 µM (inactive); in assay [14], 0.429 µM (active); in assay [15], 2.56 µM (inactive); in [16] it was 2.17 µM (inactive); in assay [17], 2.47 µM (inactive); in assay [18], 1.99 µM (inactive). For the same compound, the GI50 in [19] was 2.31 µM (inactive); in assay [20] it was 2.69 µM (inactive).
`COc1ccc(/C=C(\Cl)c2ccc(OC)c(OC)c2)cc1OC`: the GI50 in [1], in [2], in assay [3], in assay [4], in [5] and in assay [6] was > 100 µM (inactive) in each case. Further, the GI50 was > 100 µM (inactive) in [7]; > 100 µM (inactive) in assay [8]; > 100 µM (inactive) in assay [9]; > 100 µM (inactive) in assay [10]; 22.9 µM (inactive) in assay [11]; > 100 µM (inactive) in assay [12]. Further, the GI50 in assay [13] was > 100 µM (inactive); in assay [14], > 100 µM (inactive); in assay [15], > 100 µM (inactive); in assay [16], > 67.6 µM (inactive); in [17], > 100 µM (inactive); in assay [18] it was > 100 µM (inactive). For the same compound, the GI50 in assay [19] and in assay [20] was > 100 µM (inactive) throughout.
With `CC(=O)n1[nH]c(=O)n(-c2ccccc2)c1=O`, the GI50 in assay [1], in assay [2], in assay [3], in assay [4], in [5] and in assay [6] was > 100 µM (inactive) in each case. Besides, the GI50 in assay [7], in [8], in [9], in assay [10], in [11] and in assay [12] was > 100 µM (inactive) in each case. Further, the GI50 in [13], in assay [14], in assay [15], in assay [16], in [17] and in assay [18] was > 100 µM (inactive) throughout. Besides, the GI50 in assay [19] and in assay [20] was > 100 µM (inactive) each time.
Take `CSc1nc(NC2OCC(OC(C)=O)C(OC(C)=O)C2OC(C)=O)c(/N=C\C=N\c2c(NC3OCC(OC(C)=O)C(OC(C)=O)C3OC(C)=O)nc(SC)[nH]c2=O)c(=O)[nH]1` (stereo not given): the GI50 is > 100 µM (inactive) in assay [1]; 46.7 µM (inactive) in assay [2]; 56.4 µM (inactive) in [3]; > 83 µM (inactive) in assay [4]; 56.9 µM (inactive) in assay [5]; > 100 µM (inactive) in [6]. The GI50 was > 100 µM (inactive) in [7]; 30.1 µM (inactive) in assay [8]; > 54.8 µM (inactive) in [9]; > 100 µM (inactive) in assay [10]; > 61.2 µM (inactive) in [11]; > 91 µM (inactive) in assay [12]. Further, the GI50 in assay [13] is > 100 µM (inactive); in [14] it was > 100 µM (inactive); in [15], > 100 µM (inactive); in [16] it was > 100 µM (inactive); in [17], > 100 µM (inactive); in [18], 55.2 µM (inactive). The values for the GI50 in assay [19] and in [20] were > 100 µM (inactive) and 42 µM (inactive), respectively.
For `COC(=O)CN1Cc2cc(C)cc(c2O)CN(CC(=O)OC)Cc2cc(C)cc(c2O)CN(CC(=O)OC)Cc2cc(C)cc(c2O)CN(CC(=O)OC)Cc2cc(C)cc(c2O)C1`, the GI50 is 12.2 µM (inactive) in assay [1]; 11 µM (inactive) in assay [2]; 14 µM (inactive) in [3]; 8.89 µM (inactive) in assay [4]; 15.4 µM (inactive) in [5]; 6.85 µM (inactive) in assay [6]. Also, the GI50 in assay [7] was 7.05 µM (inactive); in assay [8], 10.2 µM (inactive); in assay [9], 2.03 µM (inactive); in [10], 13.7 µM (inactive); in assay [11] it was > 100 µM (inactive); in assay [12] it was 30.5 µM (inactive). The GI50 in assay [13] is 8.17 µM (inactive); in assay [14] it was 26.9 µM (inactive); in assay [15], 9.62 µM (inactive); in assay [16], 12.2 µM (inactive); in [17], 18.4 µM (inactive); in assay [18], 24.8 µM (inactive). The results for the GI50 in assay [19] and in assay [20] were 13.6 µM (inactive) and 38.4 µM (inactive), respectively.
On to `COc1ccc(N[S+]([O-])c2ccc(Cl)cc2)cc1` (stereo not given), for which the GI50 is 24.3 µM (inactive) in [1]; 73.3 µM (inactive) in assay [2]; 11.8 µM (inactive) in assay [3]; 14.6 µM (inactive) in assay [4]; > 100 µM (inactive) in [5]; 24.3 µM (inactive) in assay [6]. For the same compound, the GI50 was 90.4 µM (inactive) in [7]; 49.8 µM (inactive) in [8]; 50.5 µM (inactive) in assay [9]; > 100 µM (inactive) in assay [10]; 16.2 µM (inactive) in [11]; 50.5 µM (inactive) in [12]. Besides, the GI50 in assay [13] is 43.5 µM (inactive); in assay [14] it was 14.8 µM (inactive); in assay [15], 20.6 µM (inactive); in assay [16] it was > 100 µM (inactive); in assay [17], 23.5 µM (inactive); in assay [18] it was 0.248 µM (active). The figures for the GI50 in assay [19] and in [20] were 24.5 µM (inactive) and 23.1 µM (inactive), respectively.
Turning to `S=C1N=C(Cl)/C(=C\c2ccco2)N1`, the GI50 in assay [1], in assay [2], in assay [3], in [4], in assay [5] and in assay [6] was > 100 µM (inactive) throughout. Moreover, the GI50 is > 100 µM (inactive) in assay [7]; > 100 µM (inactive) in assay [8]; > 100 µM (inactive) in [9]; > 100 µM (inactive) in assay [10]; 33.7 µM (inactive) in assay [11]; > 100 µM (inactive) in [12]. For the same compound, the GI50 in assay [13] was > 100 µM (inactive); in assay [14] it was > 100 µM (inactive); in assay [15] it was > 10 µM (inactive); in assay [16], > 47.2 µM (inactive); in assay [17], > 100 µM (inactive); in assay [18] it was > 100 µM (inactive). Also, the GI50 in assay [19] and in assay [20] was > 100 µM (inactive) throughout.
